Source: patent US8835470B2, “Mandelamide heterocyclic compounds” (Bristol-Myers Squibb Company, priority 2010, dated 2014)
pEC50, pIC50: −log10 of the molar value. Counter-ions that a name gives are not always drawn.

Experiments:
S1P1 [1] = molecular target: T1, S1P1 (Homo sapiens (Human), UniProt P21453); experiment: S1P1 Binding Assay; conditions: membranes from CHO cells expressing human S1P1; 33P-S1P ligand; rounded to two digits
Procedure: Membranes were prepared from CHO cells expressing human S1P1. Cells were dissociated in buffer containing 20 mM HEPES, pH 7.5, 50 mM NaCl, 2 mM EDTA and Protease Inhibitor cocktail (Roche), and disrupted on ice using the Polytron homogenizer. The homogenate was centrifuged at 20,000 rpm (48,000 G) and the supernatant was discarded. The membrane pellets were resuspended in buffer containing 50 mM HEPES, pH 7.5, 100 mM NaCl, 1 mM MgCl2, 2 mM EDTA and stored in aliquots at −80° C. after protein concentration determination. Membranes (2 μg/well) and 0.03 nM final concentration of ^33P-S1P ligand (1 mCi/ml, American Radiolabeled Chemicals) were added to the compound plates. Binding was performed for 45 minutes at room temperature, terminated by collecting the membranes onto GF/B filter plates, and radioactivity was measured by TOPCOUNT®. The competition data of the test compounds over a range of concentrations was plotted as percentage inhibition of radioligand specific binding. The IC50 is defined as the concentration of competing ligand needed to reduce specific binding by 50%.
The results in Table A were rounded to two digits.

S1P1 [2] = molecular target: T1, S1P1; experiment: Receptor [35S] GTPγS Binding Assay, S1P1; type: biochemical; conditions: for pEC50: membranes from S1P1/CHO cells, [35S]GTP; for GTPγS S1P3/S1P1: ratio of GTPγS S1P3 EC50 to GTPγS S1P1 EC50, * and ** S1P3 value at detection limit
Procedure: (§1) Receptor [35S] GTPγS Binding Assays
(§2) Membranes prepared from S1P1/CHO cells or EDG3-Ga15-bla HEK293T cells were added to the compound plate (40 μl/well, final protein 3 μg/well) with MULTIDROP®. [^35S]GTP (1250 Ci/mmol, Perkin Elmer) was diluted in assay buffer: 20 mM HEPES, pH7.5, 10 mM MgCl2, 150 mM NaCl, 1 mM EGTA, 1 mM DTT, 10 μM GDP, 0.1% fatty acid free BSA, and 10 μg/ml Saponin to 0.4 nM. 40 μl of the [^35S] GTP solution was added to the compound plate with a final concentration of 0.2 nM. The reaction was kept at room temperature for 45 min. At the end of incubation, all the mixtures in the compound plate were transferred to a 384 well FB filter plates via GPCR robot system. The filter plate was washed with water 4 times by using the modified manifold Embla plate washer and dried at 60° C. for 45 min. 30 μl of MicroScint 20 scintillation fluid was added to each well for counting at Packard TOPCOUNT®.
A larger value for the GTPγS S1P3 EC50 value indicated less activity in the GTPγS S1P3 binding assay.

S1P3 = S1P3 (Homo sapiens (Human), UniProt Q99500); experiment: Receptor [35S] GTPγS Binding Assay, S1P3; type: biochemical; conditions: membranes from EDG3-Ga15-bla HEK293T cells; * detection limit 62,500 nM, ** detection limit 32,500 nM
S1P3, sequence (Q99500 whole entry): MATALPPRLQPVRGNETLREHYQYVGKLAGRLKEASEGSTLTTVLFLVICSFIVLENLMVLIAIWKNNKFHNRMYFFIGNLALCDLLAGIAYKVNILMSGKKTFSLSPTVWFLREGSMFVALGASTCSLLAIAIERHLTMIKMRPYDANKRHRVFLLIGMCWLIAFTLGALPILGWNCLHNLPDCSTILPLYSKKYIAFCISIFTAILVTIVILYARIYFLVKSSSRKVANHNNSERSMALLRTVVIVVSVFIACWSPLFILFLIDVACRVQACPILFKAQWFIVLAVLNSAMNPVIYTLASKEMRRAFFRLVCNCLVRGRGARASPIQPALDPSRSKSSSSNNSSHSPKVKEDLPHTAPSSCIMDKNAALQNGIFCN
Procedure: as §1
as §2, with “Compounds were loaded in a 384 FALCON® v-bottom plate (0.5 μl/well in a 3-fold dilution). Membranes” for “Membranes”, “TOPCOUNT®. EC50 is defined as the agonist concentration that corresponds to 50% of the Ymax (maximal response) obtained for each individual compound tested.” for “TOPCOUNT®.”
A smaller value for GTPγS S1P1 EC50 value indicated greater activity for the compound in the GTPγS S1P1 binding assay. A larger value for the GTPγS S1P3 EC50 value indicated less activity in the GTPγS S1P3 binding assay.

T1 sequence (P21453 whole entry): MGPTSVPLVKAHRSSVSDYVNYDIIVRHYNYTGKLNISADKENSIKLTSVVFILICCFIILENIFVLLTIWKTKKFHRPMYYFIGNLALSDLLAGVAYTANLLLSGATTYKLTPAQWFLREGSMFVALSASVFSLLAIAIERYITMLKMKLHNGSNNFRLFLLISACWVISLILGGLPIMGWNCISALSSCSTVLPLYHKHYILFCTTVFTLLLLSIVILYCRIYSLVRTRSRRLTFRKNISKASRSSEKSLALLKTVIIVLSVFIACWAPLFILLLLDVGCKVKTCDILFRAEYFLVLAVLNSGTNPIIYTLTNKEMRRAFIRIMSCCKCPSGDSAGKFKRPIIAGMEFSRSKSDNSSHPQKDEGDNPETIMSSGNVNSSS

pIC50 (S1P1 [1]) | pEC50 (S1P1 [2]) | GTPγS S1P3/S1P1 (S1P1 [2]) | pEC50 (S1P3) | Compound
6.04 | 5.37 | 1.4 | 5.21 | CNC(=O)[C@H](CCc1ccccc1)NC(=O)C(O)c1ccc(-c2noc(-c3onc(-c4ccccc4)c3C(F)(F)F)n2)cc1 (mixture of isomers) [Example 26, (R/S)-(2S)-2-(2-Hydroxy-2-(4-(5-(3-phenyl-4-(trifluoromethyl)isoxazol-5-yl)-1,2,4-oxadiazol-3-yl)phenyl)acetamido)-N-methyl-4-phenylbutanamide]
8.59 | 8.82 | 10707 | 4.79 | CNC(=O)[C@H](C)NC(=O)C(O)c1ccc(-c2noc(-c3onc(-c4ccccc4)c3C(F)(F)F)n2)cc1 (mixture of isomers) [Example 32, (R/S)-2-(2-Hydroxy-2-(4-(5-(3-phenyl-4-(trifluoromethyl)isoxazol-5-yl)-1,2,4-oxadiazol-3-yl)phenyl)acetamido)-N-methyl(S)propanamide]
7.89 | 7.50 | 171 | 5.27 | O=C(NCc1nc2ccccc2[nH]1)C(O)c1ccc(-c2noc(-c3onc(-c4ccccc4)c3C(F)(F)F)n2)cc1 (racemic) [Example 90, (R/S)-N-((1H-Benzo[d]imidazol-2-yl)methyl)-2-hydroxy-2-(4-(5-(3-phenyl-4-(trifluoromethyl)isoxazol-5-yl)-1,2,4-oxadiazol-3-yl)phenyl)acetamide]
8.68 | 7.87 | 1484 | 4.70 | O=C(NCc1cnco1)C(O)c1ccc(-c2noc(-c3onc(-c4ccccc4)c3C(F)(F)F)n2)cc1 (racemic) [Example 126, (R/S)-2-hydroxy-N-(oxazol-5-ylmethyl)-2-(4-(5-(3-phenyl-4-(trifluoromethyl)isoxazol-5-yl)-1,2,4-oxadiazol-3-yl)phenyl)acetamide]
6.74 | 5.81 | > 20** | < 4.51 | O=C(NCc1cc2ccccc2[nH]1)C(O)c1ccc(-c2noc(-c3onc(-c4ccccc4)c3C(F)(F)F)n2)cc1 (racemic) [Example 86, (R/S)-N-((1H-Indol-2-yl)methyl)-2-hydroxy-2-(4-(5-(3-phenyl-4-(trifluoromethyl)isoxazol-5-yl)-1,2,4-oxadiazol-3-yl)phenyl)acetamide]
6.59 | 6.29 | 22 | 4.95 | O=C(NC[C@@H]1CCCC[C@H]1O)C(O)c1ccc(-c2noc(-c3cnn(-c4ccccc4)c3C(F)(F)F)n2)cc1 (mixture of isomers) [Example 152, (R/S)-2-hydroxy-N-(((1S,2R)-2-hydroxycyclohexyl)methyl)-2-(4-(5-(1-phenyl-5-(trifluoromethyl)-1H-pyrazol-4-yl)-1,2,4-oxadiazol-3-yl)phenyl)acetamide]
7.54 | 6.99 | > 604* | < 4.20 | O=C(O)CCNC(=O)C(O)c1ccc(-c2noc(-c3onc(-c4ccccc4)c3C(F)(F)F)n2)cc1 (racemic) [Example 22, (R/S)-3-(2-Hydroxy-2-(4-(5-(3-phenyl-4-(trifluoromethyl)isoxazol-5-yl)-1,2,4-oxadiazol-3-yl)phenyl)acetamido)propanoic acid]
8.49 | 7.90 | 731 | 5.04 | O=C(NCCO)C(O)c1ccc(-c2noc(-c3noc(-c4ccccc4)c3C(F)(F)F)n2)cc1 (racemic) [Example 62, (R/S)-2-Hydroxy-N-(2-hydroxyethyl)-2-(4-(5-(5-phenyl-4-(trifluoromethyl)isoxazol-3-yl)-1,2,4-oxadiazol-3-yl)phenyl)acetamide]
– | – | > 387* | < 4.20 | O=C(NC1CCC1)C(O)c1ccc(-c2noc(-c3onc(-c4ccccc4)c3C(F)(F)F)n2)cc1 (racemic) [Example 116, (R/S)-N-Cyclobutyl-2-hydroxy-2-(4-(5-(3-phenyl-4-(trifluoromethyl)isoxazol-5-yl)-1,2,4-oxadiazol-3-yl)phenyl)acetamide]
8.07 | 7.47 | > 1827* | < 4.20 | CCNC(=O)C(O)c1ccc(-c2noc(-c3cnn(-c4ccccc4)c3C(F)(F)F)n2)cc1 (racemic) [Example 61, (R/S)-N-Ethyl-2-hydroxy-2-(4-(5-(1-phenyl-5-(trifluoromethyl)-1H-pyrazol-4-yl)-1,2,4-oxadiazol-3-yl)phenyl)acetamide]
8.35 | 7.29 | > 614** | < 4.51 | O=C(NC1CNC1)C(O)c1ccc(-c2noc(-c3onc(-c4ccccc4)c3C(F)(F)F)n2)cc1 (single isomer, unassigned) [Example 30, N-(Azetidin-3-yl)-2-hydroxy-2-(4-(5-(3-phenyl-4-(trifluoromethyl)isoxazol-5-yl)-1,2,4-oxadiazol-3-yl)phenyl)acetamide-TFA]
7.51 | 7.05 | – | 4.87 | CC(C)(C)OC(=O)NCCNC(=O)C(O)c1ccc(-c2noc(-c3onc(-c4ccccc4)c3C(F)(F)F)n2)cc1 (racemic) [Example 51, (R/S)-tert-Butyl 2-(2-hydroxy-2-(4-(5-(3-phenyl-4-(trifluoromethyl)isoxazol-5-yl)-1,2,4-oxadiazol-3-yl)phenyl)acetamido)ethylcarbamate]
6.46 | 5.98 | > 60* | < 4.20 | CCN(C)C(=O)C(O)c1ccc(-c2noc(-c3onc(-c4ccccc4)c3C(F)(F)F)n2)cc1 (racemic) [Example 24, (R/S)-N-Ethyl-2-hydroxy-N-methyl-2-(4-(5-(3-phenyl-4-(trifluoromethyl)isoxazol-5-yl)-1,2,4-oxadiazol-3-yl)phenyl)acetamide]
8.70 | 8.33 | 2795 | 4.88 | Cc1nnc(CNC(=O)C(O)c2ccc(-c3noc(-c4onc(-c5ccccc5)c4C(F)(F)F)n3)cc2)o1 (single isomer, unassigned) [Example 10, 2-Hydroxy-N-((5-methyl-1,3,4-oxadiazol-2-yl)methyl)-2-(4-(5-(3-phenyl-4-(trifluoromethyl)isoxazol-5-yl)-1,2,4-oxadiazol-3-yl)phenyl)acetamide]
7.77 | 7.76 | 1006 | 4.76 | CCNC(=O)C(O)c1ccc(-c2noc(-c3noc(-c4ccccc4)c3C(F)(F)F)n2)cc1 (racemic) [Example 67, (R/S)-N-Ethyl-2-hydroxy-2-(4-(5-(5-phenyl-4-(trifluoromethyl)isoxazol-3-yl)-1,2,4-oxadiazol-3-yl)phenyl)acetamide]
7.38 | 6.20 | 27 | 4.77 | Cn1cccc1CNC(=O)C(O)c1ccc(-c2noc(-c3onc(-c4ccccc4)c3C(F)(F)F)n2)cc1 (racemic) [Example 132, (R/S)-2-hydroxy-N-((1-methyl-1H-pyrrol-2-yl)methyl)-2-(4-(5-(3-phenyl-4-(trifluoromethyl)isoxazol-5-yl)-1,2,4-oxadiazol-3-yl)phenyl)acetamide]
